Experiments:
PD-1/PD-L1 = PD-1/PD-L1 (Homo sapiens, UniProt Q9NZQ7); test: PD-1/PD-L1 biochemical protein-protein interaction assay (ALPHA); assay type: binding; conditions: 0.3 nM His tagged PD-L1, 2.5 nM biotinylated Fc-PD-1, 60 minutes at 25° C., read-out: IC50 PD-L1-PD-1 Alpha IC50-mono PD-L1-fcP-D1
Experimental: Biological Activity PD-1/PD-L1 & CTLA/CD80 Biochemical Protein-Protein Interaction Assay
Compounds were tested in biochemical protein-protein interaction assays to determine if they can specifically block the interaction between the extracellular domains of PD-1/PD-L1 or CTLA/CD80. Binding of the protein pairs is measured using a bead based Amplified Luminescent Proximity Homogeneous Assay (ALPHA) platform. Binding of each protein pair results in proximity of the donor and acceptor beads which leads to an increase in ALPHA signal. Disruption of the protein-protein interaction with a test compound results in a decrease in ALPHA signal. Assays are performed in 25 mM Hepes (pH 7.4), 150 mM NaCl, 3.4 mM EDTA, 0.005% Tween 20, and 0.01% BSA. Final protein concentration in the assays were 0.3 nM (His tagged PD-L1), 2.5 nM (biotinylated Fc-PD-1), 1 nM (His tagged CTLA4) and 1 nM (biotinylated CD80). After an assay reaction time of 60 minutes at 25° C., binding was measured with addition of 20 μg/mL ALPHA assay acceptor beads (anti-His coated) and […] ALPHA assay donor beads (streptavidin coated). IC50 values were calculated from the fit of the dose-response curves to a four-parameter equation. Representative data are shown below in Table 1.

PD-1/PD-L1 interaction = molecular target: T1, PD-1/PD-L1 interaction (Homo sapiens, UniProt Q9NZQ7); test: PD-1/PD-L1 NFAT reporter co-culture assay; assay type: cell-based; conditions: Jurkat PD-1 NFAT-luciferase cells co-cultured with aAPC-PD-L1 CHO cells, 6 hrs at 37° C.; read-out: EC50 NFAT Luciferase
T1 construct: expressed in transfected cells; host or cells: CHO cells (aAPC-PD-L1) co-cultured with Jurkat cells overexpressing PD-1 and an NFAT-luciferase reporter
Procedure, shortened: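 Jurkat cells overexpressing PD-1 with NFAT-driven luciferase were mixed with compound in RPMI 1640/2% FBS and seeded onto overnight-plated CHO aAPC-PD-L1 cells expressing surface anti-CD3 and PD-L1. Co-culture ran 6 h at 37 °C; luminescence read with ONE-Glo; EC50 from four-parameter fit.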

T1 sequence (Q9NZQ7 19-290): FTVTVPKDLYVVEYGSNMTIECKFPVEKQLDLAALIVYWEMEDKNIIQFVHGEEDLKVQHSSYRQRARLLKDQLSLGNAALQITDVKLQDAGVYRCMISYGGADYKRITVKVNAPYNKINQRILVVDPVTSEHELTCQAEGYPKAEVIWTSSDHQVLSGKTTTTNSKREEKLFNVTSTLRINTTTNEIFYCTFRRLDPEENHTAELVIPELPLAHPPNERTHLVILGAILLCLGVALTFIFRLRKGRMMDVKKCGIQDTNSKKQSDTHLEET
Sequence of PD-1/PD-L1 (Q9NZQ7 19-238 limits assumed): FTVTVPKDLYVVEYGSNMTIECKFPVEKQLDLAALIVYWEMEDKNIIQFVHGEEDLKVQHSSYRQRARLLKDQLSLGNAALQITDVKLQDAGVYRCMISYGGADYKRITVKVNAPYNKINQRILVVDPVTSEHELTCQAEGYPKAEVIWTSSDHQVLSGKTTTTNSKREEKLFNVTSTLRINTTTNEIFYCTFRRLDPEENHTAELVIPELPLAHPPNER

| Structure (SMILES) | IC50 (PD-1/PD-L1) [nM] | EC50 (PD-1/PD-L1 interaction) [nM] |
| --- | --- | --- |
| N#Cc1cncc(COc2cc(C(=O)N3CCc4c(-c5cccc6c5CCN6C(=O)c5ccc(CNC[C@@H](O)CC(=O)O)c(OCc6cncc(C#N)c6)c5)cccc43)ccc2CNC[C@@H](O)CC(=O)O)c1 [Example 267, (3S,3′S)-4,4′-(((([4,4′-biindoline]-1,1′-dicarbonyl)bis(2-((5-cyanopyridin-3-yl)methoxy)-4,1-phenylene))bis(methylene))bis(azanediyl))bis(3-hydroxybutanoic acid)] | 1.1 | 8540 |
| Cc1cc(OCc2cccc(-c3cccc(COc4cc(C)c(CNC[C@@H](O)CC(=O)O)c(OCc5cncc(C#N)c5)c4)c3C)c2C)cc(OCc2cncc(C#N)c2)c1CNC[C@@H](O)CC(=O)O [Example 246, (3S,3′S)-4,4′-((((((2,2′-dimethyl-[1,1′-biphenyl]-3,3′-diyl)bis(methylene))bis(oxy))bis(2-((5-cyanopyridin-3-yl)methoxy)-6-methyl-4,1-phenylene))bis(methylene))bis(azanediyl))bis(3-hydroxybutanoic acid)] | 1 | 1200 |
| Cc1c(COc2cc(OCc3cncc(C#N)c3)c(CNCCCO)cc2Cl)cccc1-c1cccc(COc2cc(OCc3cncc(C#N)c3)c(CNCCCO)cc2Cl)c1C [Example 73, 5,5′-((((((2,2′-dimethyl-[1,1′-biphenyl]-3,3′-diyl)bis(methylene))bis(oxy))bis(4-chloro-6-(((3-hydroxypropyl)amino)methyl)-3,1-phenylene))bis(oxy))bis(methylene))dinicotinonitrile] | 56.1 | 2620 |
| CCOc1nc(OCc2cccc(-c3cccc(COc4ccc(CNCCO)c(OCC)n4)c3C)c2C)ccc1CNCCO [Example 271, 2,2′-((((((2,2′-dimethyl-[1,1′-biphenyl]-3,3′-diyl)bis(methylene))bis(oxy))bis(2-ethoxypyridine-6,3-diyl))bis(methylene))bis(azanediyl))bis(ethan-1-ol)] | 56 | ≥ 50000 |
| Cc1c(-c2ccc(OCCNC[C@@H](O)CC(=O)O)cc2)cccc1-c1cccc2c1CC[C@@H]2Oc1nc(OCCCC#N)c(CNC[C@@H](O)CC(=O)O)cc1Br [Example 327, (S)-4-((2-((3′-((S)-1-((3-bromo-5-((((S)-3-carboxy-2-hydroxypropyl)amino)methyl)-6-(3-cyanopropoxy)pyridin-2-yl)oxy)-2,3-dihydro-1H-inden-4-yl)-2′-methyl-[1,1′-biphenyl]-4-yl)oxy)ethyl)amino)-3-hydroxybutanoic acid] | 0.051 | 114 |
| Cc1c(COc2cc(OCc3cncc(C#N)c3)c(CN(C)C)cc2Cl)cccc1-c1cccc(-c2ccc(CN(C)C)s2)c1C [Example 366, 5-((4-chloro-2-((dimethylamino)methyl)-5-((3′-(5-((dimethylamino)methyl)thiophen-2-yl)-2,2′-dimethyl-[1,1′-biphenyl]-3-yl)methoxy)phenoxy)methyl)nicotinonitrile] | 2.33 | 2840 |
| COc1nc(OCc2cccc(-c3cccc(COc4nc(OC)c(CN5CC[C@H]5C(=O)O)cc4Br)c3C)c2C)ccc1CN1CC[C@H]1C(=O)O [Example 60, (S)-1-((6-((3′-(((3-bromo-5-(((S)-2-carboxyazetidin-1-yl)methyl)-6-methoxypyridin-2-yl)oxy)methyl)-2,2′-dimethyl-[1,1′-biphenyl]-3-yl)methoxy)-2-methoxypyridin-3-yl)methyl)azetidine-2-carboxylic acid] | 2.3 | ≥ 50000 |
| Cc1c(COc2ccc(CNC[C@@H](O)CC(=O)O)c(OCCN3CCOCC3)n2)cccc1-c1cccc(COc2ccc(CNC[C@@H](O)CC(=O)O)c(OCCN3CCOCC3)n2)c1C [Example 158, (3S,3′S)-4,4′-((((((2,2′-dimethyl-[1,1′-biphenyl]-3,3′-diyl)bis(methylene))bis(oxy))bis(2-(2-morpholinoethoxy)pyridine-6,3-diyl))bis(methylene))bis(azanediyl))bis(3-hydroxybutanoic acid)] | 2 | 28100 |
| Cc1c(COc2cc(OCc3nccs3)c(CNC[C@@H](O)CC(=O)O)cc2Cl)cccc1-c1cccc(COc2cc(OCc3nccs3)c(CNC[C@@H](O)CC(=O)O)cc2Cl)c1C [Example 262, (3S,3′S)-4,4′-((((((2,2′-dimethyl-[1,1′-biphenyl]-3,3′-diyl)bis(methylene))bis(oxy))bis(5-chloro-2-(thiazol-2-ylmethoxy)-4,1-phenylene))bis(methylene))bis(azanediyl))bis(3-hydroxybutanoic acid)] | 1.5 | 8620 |
| Cc1c(COc2cc(OCc3cncc(C#N)c3)c(CNC[C@@H](F)C(C)(C)O)cc2Cl)cccc1-c1cccc(COc2cc(OCc3cncc(C#N)c3)c(CNC[C@@H](F)C(C)(C)O)cc2Cl)c1C [Example 276, 5,5′-((((((2,2′-dimethyl-[1,1′-biphenyl]-3,3′-diyl)bis(methylene))bis(oxy))bis(4-chloro-6-((((R)-2-fluoro-3-hydroxy-3-methylbutyl)amino)methyl)-3,1-phenylene))bis(oxy))bis(methylene))dinicotinonitrile] | 77.8 | 2050 |
| Cc1c(COc2ccc(CNC[C@@H](O)CC(=O)O)c(OCc3cc(C#N)ccc3F)c2)cccc1-c1cccc(COc2ccc(CNC[C@@H](O)CC(=O)O)c(OCc3cc(C#N)ccc3F)c2)c1C [Example 265, (3S,3′S)-4,4′-((((((2,2′-dimethyl-[1,1′-biphenyl]-3,3′-diyl)bis(methylene))bis(oxy))bis(2-((5-cyano-2-fluorobenzyl)oxy)-4,1-phenylene))bis(methylene))bis(azanediyl))bis(3-hydroxybutanoic acid)] | 3.2 | 7060 |
| Cc1c(COc2cc(OCc3cncc(C#N)c3)c(CNC[C@@H](O)CC(=O)O)cc2Cl)cccc1-c1cccc(-c2ccc3ncnc(NCCO)c3c2)c1C [Example 337, (S)-4-((5-chloro-2-((5-cyanopyridin-3-yl)methoxy)-4-((3′-(4-((2-hydroxyethyl)amino)quinazolin-6-yl)-2,2′-dimethyl-[1,1′-biphenyl]-3-yl)methoxy)benzyl)amino)-3-hydroxybutanoic acid] | 0.287 | 1920 |
| Cc1c(COc2nc(OCc3cncc(C#N)c3)c(CNC[C@H](O)CC(=O)O)cc2Br)cccc1-c1cccc(COc2nc(OCc3cncc(C#N)c3)c(CNC[C@H](O)CC(=O)O)cc2Br)c1C [Example 252, (3R,3′R)-4,4′-((((((2,2′-dimethyl-[1,1′-biphenyl]-3,3′-diyl)bis(methylene))bis(oxy))bis(5-bromo-2-((5-cyanopyridin-3-yl)methoxy)pyridine-6,3-diyl))bis(methylene))bis(azanediyl))bis(3-hydroxybutanoic acid)] | 0.3 | 333 |
| Cc1c(COc2ccc(CNC[C@@H](O)CC(=O)O)c(OCc3cncc(C#N)c3)n2)cccc1-c1cccc(COc2ccc(CNC[C@@H](O)CC(=O)O)c(=O)n2Cc2cncc(C#N)c2)c1C [Example 251, (S)-4-(((6-((3′-(((5-((((S)-3-carboxy-2-hydroxypropyl)amino)methyl)-1-((5-cyanopyridin-3-yl)methyl)-6-oxo-1,6-dihydropyridin-2-yl)oxy)methyl)-2,2′-dimethyl-[1,1′-biphenyl]-3-yl)methoxy)-2-((5-cyanopyridin-3-yl)methoxy)pyridin-3-yl)methyl)amino)-3-hydroxybutanoic acid] | 2 | 25900 |
| COc1nc(OCc2cccc(-c3cccc(COc4ccc(CNC[C@H](C)O)c(OC)n4)c3C)c2C)ccc1CNC[C@H](C)O [Example 23, (2S,2′S)-1,1′-((((((2,2′-dimethyl-[1,1′-biphenyl]-3,3′-diyl)bis(methylene))bis(oxy))bis(2-methoxypyridine-6,3-diyl))bis(methylene))bis(azanediyl))bis(propan-2-ol)] | 40.6 | ≥ 50000 |
| COc1nc(OCc2cccc(-c3cccc(COc4ccc(CN[C@H](CO)C(=O)O)c(OC)n4)c3C)c2C)ccc1CN[C@H](CO)C(=O)O [Example 14] | 2.1 | 13100 |
| Cc1c(COc2cc(OCc3cncc(C#N)c3)c(CNCCO)cc2Br)cccc1-c1cccc(COc2cc(OCc3cncc(C#N)c3)c(CNCCO)cc2Br)c1C [Example 254, 5,5′-((((((2,2′-dimethyl-[1,1′-biphenyl]-3,3′-diyl)bis(methylene))bis(oxy))bis(4-bromo-6-(((2-hydroxyethyl)amino)methyl)-3,1-phenylene))bis(oxy))bis(methylene))dinicotinonitrile] | 20.8 | 689 |
| COc1nc(OCc2cccc(-c3cccc(COc4ccc(CNCCO)c(OC)n4)c3C#N)c2C)ccc1CNCCO [Example 72, 3,3′-bis(((5-(((2-hydroxyethyl)amino)methyl)-6-methoxypyridin-2-yl)oxy)methyl)-2′-methyl-[1,1′-biphenyl]-2-carbonitrile] | 8 | 2510 |
